Experiments:
[1] = biological target: Serine/threonine-protein kinase PLK1 (Homo sapiens) (UniProt P53350); test: Inhibition of human PLK1 assessed as residual activity at 10 uM relative to control
[2] = biological target: RAC-alpha serine/threonine-protein kinase (Homo sapiens) (UniProt P31749); test: Inhibition of human PKBalpha assessed as residual activity at 1 uM relative to control
[3] = biological target: Mitogen-activated protein kinase 8 (Homo sapiens) (UniProt P45983); test: Inhibition of human JNK1 assessed as residual activity at 10 uM relative to control
[4] = biological target: Calcium/calmodulin-dependent protein kinase type 1 (Homo sapiens) (UniProt Q14012); test: Inhibition of human CAMK1 assessed as residual activity at 10 uM relative to control
[5] = biological target: Mitogen-activated protein kinase 9 (Homo sapiens) (UniProt P45984); test: Inhibition of human JNK2 assessed as residual activity at 1 uM relative to control
[6] = biological target: Calcium/calmodulin-dependent protein kinase type 1 (Homo sapiens) (UniProt Q14012); test: Inhibition of human CAMK1 assessed as residual activity at 1 uM relative to control
[7] = biological target: Maternal embryonic leucine zipper kinase (Homo sapiens) (UniProt Q14680); test: Inhibition of human MELK assessed as residual activity at 1 uM relative to control
[8] = biological target: Tyrosine-protein kinase Yes (Homo sapiens) (UniProt P07947); test: Inhibition of human YES1 assessed as residual activity at 1 uM relative to control
[9] = biological target: RAC-beta serine/threonine-protein kinase (Homo sapiens) (UniProt P31751); test: Inhibition of human PKBbeta assessed as residual activity at 10 uM relative to control
[10] = biological target: T1, Eukaryotic elongation factor 2 kinase (Homo sapiens) (UniProt O00418); test: Inhibition of human EF2K assessed as residual activity at 1 uM relative to control
T1 sequence (whole entry): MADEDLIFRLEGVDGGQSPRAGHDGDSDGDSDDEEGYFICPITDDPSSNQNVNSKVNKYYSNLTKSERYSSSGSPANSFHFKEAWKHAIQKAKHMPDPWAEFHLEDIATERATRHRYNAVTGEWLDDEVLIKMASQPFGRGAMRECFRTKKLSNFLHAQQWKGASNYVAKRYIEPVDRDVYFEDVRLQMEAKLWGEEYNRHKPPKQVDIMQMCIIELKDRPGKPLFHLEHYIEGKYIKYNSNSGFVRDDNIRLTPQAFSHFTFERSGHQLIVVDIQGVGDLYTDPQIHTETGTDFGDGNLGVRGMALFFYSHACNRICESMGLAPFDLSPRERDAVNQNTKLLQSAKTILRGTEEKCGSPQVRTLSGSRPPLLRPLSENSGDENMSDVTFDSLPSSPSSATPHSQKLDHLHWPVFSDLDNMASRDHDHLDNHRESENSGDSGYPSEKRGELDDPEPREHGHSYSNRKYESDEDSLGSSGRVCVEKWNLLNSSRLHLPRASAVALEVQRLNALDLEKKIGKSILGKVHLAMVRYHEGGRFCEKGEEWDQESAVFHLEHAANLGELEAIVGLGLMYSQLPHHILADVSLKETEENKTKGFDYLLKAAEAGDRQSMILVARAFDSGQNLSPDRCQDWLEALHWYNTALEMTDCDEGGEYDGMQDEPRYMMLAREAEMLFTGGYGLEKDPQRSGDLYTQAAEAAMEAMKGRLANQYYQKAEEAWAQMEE

[11] = biological target: Insulin receptor-related protein (Homo sapiens) (UniProt P14616); test: Inhibition of human IRR assessed as residual activity at 10 uM relative to control
[12] = biological target: Rho-associated protein kinase 2 (Rattus norvegicus) (UniProt Q62868); test: Inhibition of rat ROCK2 assessed as residual activity at 1 uM relative to control
Bos taurus = species on record: Bos taurus; test: Inhibition of cow PKA assessed as residual activity at 1 uM relative to control
[13] = biological target: Insulin receptor (Homo sapiens) (UniProt P06213); test: Inhibition of human IR assessed as residual activity at 10 uM relative to control
[14] = biological target: T2, Serine/threonine-protein kinase D1 (Homo sapiens) (UniProt Q15139); test: Inhibition of human PKD1 assessed as residual activity at 1 uM relative to control
T2 sequence (whole entry): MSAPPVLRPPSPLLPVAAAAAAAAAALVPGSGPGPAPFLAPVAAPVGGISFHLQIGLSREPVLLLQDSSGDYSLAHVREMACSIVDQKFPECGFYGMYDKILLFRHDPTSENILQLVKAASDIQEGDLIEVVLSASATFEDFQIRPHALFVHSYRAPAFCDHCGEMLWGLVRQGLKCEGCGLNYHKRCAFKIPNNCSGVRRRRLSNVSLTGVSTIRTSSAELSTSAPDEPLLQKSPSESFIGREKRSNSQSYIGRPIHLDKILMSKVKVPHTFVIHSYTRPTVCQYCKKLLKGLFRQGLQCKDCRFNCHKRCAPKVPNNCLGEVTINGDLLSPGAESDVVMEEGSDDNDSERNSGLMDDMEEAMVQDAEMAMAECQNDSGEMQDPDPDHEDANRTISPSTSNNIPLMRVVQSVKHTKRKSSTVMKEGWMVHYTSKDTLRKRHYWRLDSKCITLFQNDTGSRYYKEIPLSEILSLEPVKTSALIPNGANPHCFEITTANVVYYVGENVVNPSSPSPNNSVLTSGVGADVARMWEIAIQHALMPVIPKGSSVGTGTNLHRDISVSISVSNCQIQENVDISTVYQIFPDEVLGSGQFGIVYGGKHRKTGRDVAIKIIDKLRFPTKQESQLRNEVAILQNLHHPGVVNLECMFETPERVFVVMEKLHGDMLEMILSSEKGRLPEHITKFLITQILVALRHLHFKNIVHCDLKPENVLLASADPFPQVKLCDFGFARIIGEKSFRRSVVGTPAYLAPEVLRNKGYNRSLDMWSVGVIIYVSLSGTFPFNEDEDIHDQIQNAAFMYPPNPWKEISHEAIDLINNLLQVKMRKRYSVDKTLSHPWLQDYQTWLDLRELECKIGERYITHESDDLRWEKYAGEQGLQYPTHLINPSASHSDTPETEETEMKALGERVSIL

[15] = biological target: Ribosomal protein S6 kinase beta-1 (Homo sapiens) (UniProt P23443); test: Inhibition of human S6K1 assessed as residual activity at 1 uM relative to control
[16] = biological target: Aurora kinase B (Homo sapiens) (UniProt Q96GD4); test: Inhibition of human Aurora-B assessed as residual activity at 10 uM relative to control
Rattus norvegicus = species on record: Rattus norvegicus; test: Inhibition of rat AMPK assessed as residual activity at 1 uM relative to control

Calcium/calmodulin-dependent protein kinase type 1 (Homo sapiens), sequence (Q14012 whole entry, looked up): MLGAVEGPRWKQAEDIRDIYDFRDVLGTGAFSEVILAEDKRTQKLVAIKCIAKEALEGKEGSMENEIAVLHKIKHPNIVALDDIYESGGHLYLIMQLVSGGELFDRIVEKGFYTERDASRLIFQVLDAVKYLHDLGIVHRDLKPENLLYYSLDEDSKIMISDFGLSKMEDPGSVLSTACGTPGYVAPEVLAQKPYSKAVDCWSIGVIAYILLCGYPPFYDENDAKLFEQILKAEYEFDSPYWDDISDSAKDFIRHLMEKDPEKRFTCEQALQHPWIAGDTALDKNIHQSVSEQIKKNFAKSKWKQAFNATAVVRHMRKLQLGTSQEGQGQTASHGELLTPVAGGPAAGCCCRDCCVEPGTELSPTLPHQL
RAC-beta serine/threonine-protein kinase (Homo sapiens), sequence (P31751 whole entry): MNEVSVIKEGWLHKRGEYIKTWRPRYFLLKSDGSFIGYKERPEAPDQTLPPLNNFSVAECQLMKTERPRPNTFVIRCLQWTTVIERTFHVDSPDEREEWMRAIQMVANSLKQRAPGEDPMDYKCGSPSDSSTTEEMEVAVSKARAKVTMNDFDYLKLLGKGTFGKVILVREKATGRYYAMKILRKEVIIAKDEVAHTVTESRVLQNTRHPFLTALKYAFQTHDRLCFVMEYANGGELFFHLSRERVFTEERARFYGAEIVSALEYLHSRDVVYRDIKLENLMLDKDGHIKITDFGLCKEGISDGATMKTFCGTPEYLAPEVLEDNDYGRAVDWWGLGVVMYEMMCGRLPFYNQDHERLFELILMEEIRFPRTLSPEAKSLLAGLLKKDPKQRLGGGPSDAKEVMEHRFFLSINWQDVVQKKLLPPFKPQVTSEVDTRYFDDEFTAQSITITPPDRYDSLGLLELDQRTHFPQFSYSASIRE
Mitogen-activated protein kinase 8 (Homo sapiens), sequence (P45983 whole entry): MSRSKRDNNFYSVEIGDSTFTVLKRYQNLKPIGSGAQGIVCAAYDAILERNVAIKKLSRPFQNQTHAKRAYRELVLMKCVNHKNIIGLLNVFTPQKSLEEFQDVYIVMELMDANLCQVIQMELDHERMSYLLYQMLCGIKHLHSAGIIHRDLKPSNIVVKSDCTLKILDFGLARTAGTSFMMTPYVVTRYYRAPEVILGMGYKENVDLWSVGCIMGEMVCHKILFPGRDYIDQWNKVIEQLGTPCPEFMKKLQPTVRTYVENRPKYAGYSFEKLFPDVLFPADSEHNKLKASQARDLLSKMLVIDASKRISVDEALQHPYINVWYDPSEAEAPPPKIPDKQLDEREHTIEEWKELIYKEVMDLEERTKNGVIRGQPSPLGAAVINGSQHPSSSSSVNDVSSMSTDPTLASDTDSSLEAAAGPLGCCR
Serine/threonine-protein kinase PLK1 (Homo sapiens), sequence (P53350 whole entry): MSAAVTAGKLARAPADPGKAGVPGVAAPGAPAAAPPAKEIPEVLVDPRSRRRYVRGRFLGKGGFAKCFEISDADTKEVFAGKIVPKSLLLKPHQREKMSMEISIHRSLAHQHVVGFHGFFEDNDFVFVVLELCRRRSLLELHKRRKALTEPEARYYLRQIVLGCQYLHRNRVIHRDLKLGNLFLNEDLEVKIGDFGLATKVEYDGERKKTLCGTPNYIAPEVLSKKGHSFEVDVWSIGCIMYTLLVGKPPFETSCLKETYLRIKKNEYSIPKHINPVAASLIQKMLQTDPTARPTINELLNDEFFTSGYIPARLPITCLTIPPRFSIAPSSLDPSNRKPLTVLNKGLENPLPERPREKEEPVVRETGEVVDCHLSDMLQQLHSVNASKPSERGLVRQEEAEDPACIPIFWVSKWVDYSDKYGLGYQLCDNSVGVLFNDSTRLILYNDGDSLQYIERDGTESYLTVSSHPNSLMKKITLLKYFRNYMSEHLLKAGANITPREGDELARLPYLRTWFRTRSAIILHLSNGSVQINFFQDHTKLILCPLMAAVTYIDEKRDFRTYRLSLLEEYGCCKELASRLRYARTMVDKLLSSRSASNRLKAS
Insulin receptor-related protein (Homo sapiens), sequence (P14616 27-742 limits assumed): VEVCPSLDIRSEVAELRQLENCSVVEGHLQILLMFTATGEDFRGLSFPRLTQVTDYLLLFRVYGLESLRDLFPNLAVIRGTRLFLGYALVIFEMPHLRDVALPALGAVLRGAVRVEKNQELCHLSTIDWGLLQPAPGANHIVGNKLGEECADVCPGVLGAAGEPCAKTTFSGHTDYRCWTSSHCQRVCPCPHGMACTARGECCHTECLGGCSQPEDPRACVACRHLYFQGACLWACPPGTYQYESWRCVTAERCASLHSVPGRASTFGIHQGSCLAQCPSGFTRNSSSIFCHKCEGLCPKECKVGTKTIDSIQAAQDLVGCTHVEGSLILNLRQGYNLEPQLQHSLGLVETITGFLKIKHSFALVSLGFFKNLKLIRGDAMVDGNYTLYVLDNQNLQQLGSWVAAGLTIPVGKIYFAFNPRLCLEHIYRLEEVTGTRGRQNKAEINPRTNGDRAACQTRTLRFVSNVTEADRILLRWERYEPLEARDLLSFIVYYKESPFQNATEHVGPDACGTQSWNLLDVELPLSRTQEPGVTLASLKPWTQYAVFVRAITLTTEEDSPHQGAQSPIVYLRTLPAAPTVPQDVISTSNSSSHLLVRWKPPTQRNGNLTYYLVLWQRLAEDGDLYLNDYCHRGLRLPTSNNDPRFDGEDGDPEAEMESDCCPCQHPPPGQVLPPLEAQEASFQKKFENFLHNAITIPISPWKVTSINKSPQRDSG
Insulin receptor-related protein (Homo sapiens), sequence (P14616 747-1297 limits assumed): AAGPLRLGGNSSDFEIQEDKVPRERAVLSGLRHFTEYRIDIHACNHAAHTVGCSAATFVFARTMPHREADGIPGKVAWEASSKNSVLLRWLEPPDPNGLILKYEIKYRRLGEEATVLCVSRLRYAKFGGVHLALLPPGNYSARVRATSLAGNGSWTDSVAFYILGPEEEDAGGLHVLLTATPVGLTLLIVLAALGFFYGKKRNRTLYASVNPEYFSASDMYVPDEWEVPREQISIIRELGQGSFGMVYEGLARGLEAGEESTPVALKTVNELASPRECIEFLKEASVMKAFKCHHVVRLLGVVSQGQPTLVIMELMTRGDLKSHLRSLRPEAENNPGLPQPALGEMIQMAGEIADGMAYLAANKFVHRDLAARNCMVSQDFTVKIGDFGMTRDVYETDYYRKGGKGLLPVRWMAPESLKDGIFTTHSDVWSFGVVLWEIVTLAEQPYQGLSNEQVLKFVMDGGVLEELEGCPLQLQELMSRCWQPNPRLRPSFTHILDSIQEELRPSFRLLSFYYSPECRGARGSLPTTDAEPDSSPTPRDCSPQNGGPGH
Insulin receptor (Homo sapiens), sequence (P06213 28-758 limits assumed): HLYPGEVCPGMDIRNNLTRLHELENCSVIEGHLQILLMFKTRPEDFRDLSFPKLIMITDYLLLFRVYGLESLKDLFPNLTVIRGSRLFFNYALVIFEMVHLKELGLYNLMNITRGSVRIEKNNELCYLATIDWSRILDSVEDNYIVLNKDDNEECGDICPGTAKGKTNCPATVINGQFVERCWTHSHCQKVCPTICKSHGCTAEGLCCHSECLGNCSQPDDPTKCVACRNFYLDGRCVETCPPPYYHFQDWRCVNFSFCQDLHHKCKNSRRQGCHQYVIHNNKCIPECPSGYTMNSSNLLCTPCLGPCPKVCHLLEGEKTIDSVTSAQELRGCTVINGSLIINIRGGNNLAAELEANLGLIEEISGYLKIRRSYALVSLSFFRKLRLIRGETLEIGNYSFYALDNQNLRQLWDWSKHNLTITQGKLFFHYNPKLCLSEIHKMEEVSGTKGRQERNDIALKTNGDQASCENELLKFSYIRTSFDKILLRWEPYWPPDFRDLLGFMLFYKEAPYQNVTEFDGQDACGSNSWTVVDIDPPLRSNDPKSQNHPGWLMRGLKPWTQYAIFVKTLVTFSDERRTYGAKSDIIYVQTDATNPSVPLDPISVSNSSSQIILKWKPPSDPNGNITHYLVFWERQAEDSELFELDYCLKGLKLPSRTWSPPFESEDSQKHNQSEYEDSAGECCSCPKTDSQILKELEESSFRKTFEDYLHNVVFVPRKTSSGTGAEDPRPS
Insulin receptor (Homo sapiens), sequence (P06213 763-1382 limits assumed): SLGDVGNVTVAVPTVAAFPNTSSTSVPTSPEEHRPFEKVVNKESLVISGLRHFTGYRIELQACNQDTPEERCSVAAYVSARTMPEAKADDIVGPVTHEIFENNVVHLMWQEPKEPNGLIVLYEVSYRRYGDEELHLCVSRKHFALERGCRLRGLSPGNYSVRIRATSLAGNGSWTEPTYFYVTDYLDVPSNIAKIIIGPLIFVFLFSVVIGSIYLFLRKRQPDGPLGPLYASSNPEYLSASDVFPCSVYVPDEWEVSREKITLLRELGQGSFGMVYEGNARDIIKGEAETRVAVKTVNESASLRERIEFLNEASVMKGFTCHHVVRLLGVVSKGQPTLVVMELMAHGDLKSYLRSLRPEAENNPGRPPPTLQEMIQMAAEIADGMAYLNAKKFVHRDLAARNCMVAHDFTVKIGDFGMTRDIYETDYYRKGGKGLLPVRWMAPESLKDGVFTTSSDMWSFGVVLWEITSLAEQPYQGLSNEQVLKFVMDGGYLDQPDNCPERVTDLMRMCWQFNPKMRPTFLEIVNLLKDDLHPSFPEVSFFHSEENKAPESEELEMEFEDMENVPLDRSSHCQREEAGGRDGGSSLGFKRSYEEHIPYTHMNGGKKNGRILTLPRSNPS
RAC-alpha serine/threonine-protein kinase (Homo sapiens), sequence (P31749 whole entry): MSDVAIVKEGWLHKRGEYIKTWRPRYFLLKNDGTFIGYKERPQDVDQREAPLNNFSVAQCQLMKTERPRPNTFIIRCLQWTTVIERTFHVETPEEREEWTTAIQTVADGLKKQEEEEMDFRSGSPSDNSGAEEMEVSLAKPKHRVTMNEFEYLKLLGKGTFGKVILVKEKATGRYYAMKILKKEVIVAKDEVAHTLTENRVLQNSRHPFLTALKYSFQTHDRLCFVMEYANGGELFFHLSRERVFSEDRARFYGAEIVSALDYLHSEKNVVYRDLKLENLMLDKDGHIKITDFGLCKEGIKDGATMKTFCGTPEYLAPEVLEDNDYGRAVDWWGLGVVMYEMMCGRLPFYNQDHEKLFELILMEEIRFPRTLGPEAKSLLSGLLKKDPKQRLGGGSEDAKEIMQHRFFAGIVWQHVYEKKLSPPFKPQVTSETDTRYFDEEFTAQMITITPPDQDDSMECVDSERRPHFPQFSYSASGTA

Row | SMILES | Activity [1] [%] | Activity [2] [%] | Activity [3] [%] | Activity [4] [%] | Activity [5] [%] | Activity [6] [%] | Activity [7] [%] | Activity [8] [%] | Activity [9] [%] | Activity [10] [%] | Activity [11] [%] | Activity [12] [%] | Activity (Bos taurus) [%] | Activity [13] [%] | Activity [14] [%] | Activity [15] [%] | Activity [16] [%] | Activity (Rattus norvegicus) [%]
1 | CCCC(=O)Nc1n[nH]c2ncc(-c3cccnc3)cc12 | 80 | 94 | 92 | 83 | 99 | 93 | 115 | 83 | 91 | 106 | 58 | 121 | 101 | 101 | 76 | 85 | 71 | 93
2 | CC(=O)Nc1nccc(-c2c(-c3ccccc3)noc2C)n1 | 81.6 | 112 | 70.3 | 71 | 85.2 | 103 | 103 | 119 | 84 | 83.2 | 81.4 | 95 | 81.7 | 100 | 80.7 | 108 | 93 | 82.8
3 | CC(=O)Nc1cccc(-c2cnc3[nH]nc(C)c3c2)c1 | 95.5 | 89.5 | 66.9 | 68.4 | 98.5 | 111 | 76.1 | 100 | 94 | 112 | 48.8 | 93.9 | 95 | 94.9 | 108 | 90.6 | 85.1 | 74.3
